Patent US10174067B2, “Type of cytidine derivative and application thereof” (priority 2014, dated 2019)
Marks after values point to notes of the source that are not given here.

How the values were obtained:
[1] = tested on: HCT-116 colon cancer xenografts; assay: Tumor growth inhibition of HCT-116 colon cancer xenografts in tumor-bearing nude mice (tumor volume, TGI %, RTV, T/C %); assay type: in vivo, Balb/c Nude mice; details: for T/C % (relative tumor proliferation rate): single-dose intraperitoneal, dosage mg/kg: G3, G4, G8 350, G5, G9 325, G6 300, G7 250;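 for T/C % (relative tumor proliferation rate): control C is the vehicle-treated model control group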
In short: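 Nude mice inoculated with HCT-116 cells (about 3×10^7 cells/mL in serum-free medium). Tumor diameter measured three times weekly and volume computed as V=3/4π(D/2)^3. Activity expressed as TGI (%) and T/C (%) from relative tumor volume Vt/V0, with V0 taken at grouping and dosing start; P<0.05 significant.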

[2] = tested on: ICR mice; assay: in vivo; details: female ICR mice; single-dose ip
In short: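 Female SPF ICR mice received a single ip dose in ethanol/Cremophor EL/saline (5:5:90), with dose lowered after deaths and raised otherwise. MTD defined as dose causing no death, no >10% weight loss versus Day 0 and no significant side effects; daily weights and twice-daily clinical observation over 7-14 days.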

[3] = In short: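 Female SPF Balb/c nude mice bearing subcutaneous HCT-116 xenografts (3×10^6 cells, right hind limb), grouped at 60–150 mm^3, 6 per group; vehicle ethanol/Cremophor EL/saline 5:5:90. Body weight thrice weekly; tumours excised and weighed at sacrifice; Mean±SEM, unpaired t-test, P<0.05.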
[4] = Day 0, G3-G9 groups, single IP dose, Mean±SEM
[5] = Day 4, G3-G9 groups, single IP dose, Mean±SEM
[6] = Day 6, G3-G9 groups, single IP dose, Mean±SEM
[7] = Day 8, G3-G9 groups, single IP dose, Mean±SEM
[8] = Day 11, G3-G9 groups, single IP dose, Mean±SEM
[9] = Day 13, G3-G9 groups, single IP dose, Mean±SEM
[10] = Day 15, G3-G9 groups, single IP dose, Mean±SEM
[11] = Day 18, G3-G9 groups, single IP dose, Mean±SEM
[12] = Day 20, G3-G9 groups, single IP dose, Mean±SEM
[13] = Day 22, G3-G9 groups, single IP dose, Mean±SEM

Structure (SMILES): CCCCOC(=O)Nc1nc(=O)n([C@@H]2O[C@H](CO)[C@@H](O)C2(F)F)cc1Br [Compound G6, 5-Br-4-N-(n-butoxycarbonyl)-2′-deoxy-2′,2′-difluorocytidine]
- Day 0 (RTV) [1, 4]: 1.00 ± 0.00
- Tumor volume, Day 0 [1, 4]: 80.31 ± 24.42* mm^3
- T/C % (relative tumor proliferation rate) ([1]; Day 0): 0.09%
- Day 4 (TGI %) ([1]; Day 4, G3-G9 groups, single IP dose): 82.09%
- Day 4 (RTV) [1, 5]: 1.42 ± 0.00
- Tumor volume, Day 4 [1, 5]: 47.71 ± 0.00 mm^3
- T/C % (relative tumor proliferation rate) ([1]; Day 4): 75.54%
- Day 6 (TGI %) ([1]; Day 6, G3-G9 groups, single IP dose): 84.52%
- Day 6 (RTV) [1, 6]: 1.95 ± 0.00
- Tumor volume, Day 6 [1, 6]: 65.45 ± 0.00 mm^3
- T/C % (relative tumor proliferation rate) ([1]; Day 6): 64.68%
- Day 8 (TGI %) ([1]; Day 8, G3-G9 groups, single IP dose): 78.47%
- Day 8 (RTV) [1, 7]: 3.38 ± 0.00
- Tumor volume, Day 8 [1, 7]: 113.10 ± 0.00 mm^3
- T/C % (relative tumor proliferation rate) ([1]; Day 8): 89.68%
- Day 11 (TGI %) ([1]; Day 11, G3-G9 groups, single IP dose): 72.53%
- Day 11 (RTV) [1, 8]: 6.59 ± 0.00
- Tumor volume, Day 11 [1, 8]: 220.89 ± 0.00 mm^3
- T/C % (relative tumor proliferation rate) ([1]; Day 11): 110.90%
- Day 13 (TGI %) ([1]; Day 13, G3-G9 groups, single IP dose): 67.12%
- Day 13 (RTV) [1, 9]: 11.39 ± 0.00
- Tumor volume, Day 13 [1, 9]: 381.70 ± 0.00 mm^3
- T/C % (relative tumor proliferation rate) ([1]; Day 13): 132.45%
- Day 15 (TGI %) ([1]; Day 15, G3-G9 groups, single IP dose): 50.67%
- Day 15 (RTV) [1, 10]: 20.80 ± 0.00
- Tumor volume, Day 15 [1, 10]: 696.91 ± 0.00 mm^3
- T/C % (relative tumor proliferation rate) ([1]; Day 15): 198.59%
- Day 18 (TGI %) ([1]; Day 18, G3-G9 groups, single IP dose): 22.38%
- Day 18 (RTV) [1, 11]: 42.88 ± 0.00
- Tumor volume, Day 18 [1, 11]: 1436.76 ± 0.00 mm^3
- T/C % (relative tumor proliferation rate) ([1]; Day 18): 311.29%
- Day 20 (TGI %) ([1]; Day 20, G3-G9 groups, single IP dose): 16.62%
- Day 20 (RTV) [1, 12]: 52.73 ± 0.00
- Tumor volume, Day 20 [1, 12]: 1767.15 ± 0.00 mm^3
- T/C % (relative tumor proliferation rate) ([1]; Day 20): 332.56%
- Day 22 (TGI %) ([1]; Day 22, G3-G9 groups, single IP dose): 18.00%
- Day 22 (RTV) [1, 13]: 64.00 ± 0.00
- Tumor volume, Day 22 [1, 13]: 2144.66 ± 0.00 mm^3
- T/C % (relative tumor proliferation rate) ([1]; Day 22): 329.10%
- dose that could be tolerated (maximum tolerated dose, MTD) [2]: 200 mg/kg
- Weight change rate, Day 0 [3, 4]: 0.00 ± 0.00%
- Weight of mice, Day 0 [3, 4]: 21.47 ± 0.65 g
- Weight change rate, Day 4 [3, 5]: 0.00 ± 0.00%
- Weight of mice, Day 4 [3, 5]: 19.30 ± 0.00 g
- animals died on Day 4 after administration ([3]; Day 4, G4 350 mg/kg, G8 350 mg/kg, G6 300 mg/kg, single IP, 6 mice a group): Five
- Weight change rate, Day 6 [3, 6]: 0.52 ± 0.00%
- Weight of mice, Day 6 [3, 6]: 19.40 ± 0.00 g
- Weight change rate, Day 8 [3, 7]: 1.55 ± 0.00%
- Weight of mice, Day 8 [3, 7]: 19.60 ± 0.00 g
- Weight change rate, Day 11 [3, 8]: 6.22 ± 0.00%
- Weight of mice, Day 11 [3, 8]: 20.50 ± 0.00 g
- Weight change rate, Day 13 [3, 9]: 7.77 ± 0.00%
- Weight of mice, Day 13 [3, 9]: 20.80 ± 0.00 g
- Weight change rate, Day 15 [3, 10]: 8.29 ± 0.00%
- Weight of mice, Day 15 [3, 10]: 20.90 ± 0.00 g
- Weight change rate, Day 18 [3, 11]: 5.18 ± 0.00%
- Weight of mice, Day 18 [3, 11]: 20.30 ± 0.00 g
- Weight change rate, Day 20 [3, 12]: 4.66 ± 0.00%
- Weight of mice, Day 20 [3, 12]: 20.20 ± 0.00 g
- Weight change rate, Day 22 [3, 13]: 6.22 ± 0.00%
- Weight of mice, Day 22 [3, 13]: 20.50 ± 0.00 g
- Day 22 Mortality ([3]; Day 22, single IP dose (mg/kg)): 83%
